For one data set, the target named is FTase (Homo sapiens, UniProt P49354+P49356). The note with it: read-out: FTase IC50; cited from earlier work.
The next data set addresses GGTase I (Homo sapiens, UniProt P49354+P53609). To be noted: read-out: GGTase I / PGGTase-I IC50; cited from earlier work.
The next data set relates to SH-SY5Y cells. The data set is described as follows: MTT cell viability of 6-OHDA treated SH-SY5Y cells. It counts as cell-based, human. The protocol: To test whether inhibition of Ras farnesylation could protect SH-SY5Y cells against 6-OHDA induced oxidative stress, a Ras farnesyltransferase inhibitor, L-744,832, was used in 6-OHDA treated SH-SY5Y cells.
SH-SY5Y cells were plated in 24 well plates (ATGC, France) at the initial density of 3*10^5 cells/well. After 24 hours, cells were pretreated with L-744,832 for 6 hours at concentrations ranging from 20 nM to 40 μM. Then, 6-OHDA (Sigma) diluted in PBS was added to the wells at the concentration of 50 μM. After 17 h incubation, an MTT assay was conducted to reveal cell viability, which was measured as normalized optical densities values (treated cells/untreated control cells), where a value of 1 represents 100% neuronal survival and a value of 0.6 represents 60% survival.

The test system of a further data set is mammary tumors. The note with it: cited from earlier work.
For data set [1] the following is noted: cell-based assays (Law et al. 2000; Birkenkamp et al. 2004); cited from earlier work.

The structures appear in SMILES notation.

Take `CSCC[C@H](NC(=O)c1ccc(NC(=O)[C@@H](N)CS)cc1)C(=O)O` [FTI-232, Cys-4-ABA-Met]: at FTase, the IC50 was 50 nM.

For `COC(=O)[C@H](CCSC)N(C(=O)c1ccccc1)C1CCN(C(=O)[C@@H](N)CS)CC1` [Methyl N-benzoyl-N-(piperidin-4-yl-N-(R)-cysteinyl)-(S) methioninate], the IC50 on FTase is 20 nM.

For `C[C@H]([C@H](C/C=C/c1nc2ccccc2o1)c1ccc2c(c1)OCO2)N(Cc1ccc2ccccc2c1)C(=O)[C@H]1OC(C(=O)O)(C(=O)O)O[C@@H]1C(=O)O` [J-104,135], the IC50 on FTase was 3.9 nM. With `C[C@H]([C@H](C/C=C/c1nc2ccccc2o1)c1ccc2c(c1)OCO2)N(Cc1ccc2ccccc2c1)C(=O)[C@H]1OC(C(=O)O)(C(=O)O)O[C@@H]1C(=O)O` [J-104,134], the IC50 on FTase is 5 nM.

For `CC(C)C[C@H](NC(=O)c1ccc(NC[C@@H](N)CS)cc1-c1ccccc1)C(=O)O` [GGTI-287], the IC50 on GGTase I is 5 nM.

With `COC(=O)[C@H](CCSC)NC(=O)c1ccc(NC[C@@H](N)CS)cc1-c1ccccc1` [FTI-277], the IC50 on FTase was 100 nM. Consider `CSCC[C@H](NC(=O)c1ccc(NC[C@@H](N)CS)cc1)C(=O)O` [FTI-249], for which the IC50 at FTase is 50 nM.

`CC(=O)N(c1ccc(C)cc1)c1ccc(NC(=O)CCCCc2ccccc2)cc1C(=O)c1ccccc1`: on FTase, the IC50 is 390 nM. For the molecule `CSCC[C@@H](NC(=O)[C@H]1Cc2ccccc2CN1C(=O)[C@@H](NCCc1c[nH]cn1)C(C)C)C(=O)O` (relative stereo) [BMS-193269, (R*)-N-[[1,2,3,4-Tetrahydro-2-[N-[2-(1H-imidazol-4-yl)ethyl]-L-valyl]-3-isoquinolinyl]carbonyl]-L-methionine], on FTase, the IC50 is 0.79 nM.

As for `CSCCC(NC(=O)C(C=CC(C=CC(N)CS)C(C)C)Cc1ccccc1)C(=O)O` (stereo not drawn) [B956], the IC50 on FTase is 11 nM. `CCC(C)C(COC(Cc1ccccc1)C(=O)NC(CCS(C)(=O)=O)C(=O)O)NCC(N)CS` [L-739,750]: on FTase, the IC50 was 1.8 nM. For the molecule `CC[C@H](C)[C@@H](CO[C@@H](Cc1ccccc1)C(=O)N[C@@H](CCS(C)(=O)=O)C(=O)OC(C)C)NC[C@@H](N)CS` [L-744,832, (2S)-2-[[(2S)-2-[[(2S,3S)-2-[[(2R)-2-Amino-3-mercaptopropyl]amino]-3-methylpentyl]oxy]-1-oxo-3-phenylpropyl]amino]-4-(methylsulfonyl)-butanoic acid 1-methylethyl ester], in the data set on SH-SY5Y cells (SH-SY5Y cells), the “toxicity for SH-SY5Y cells” value is recorded as “non toxic”. The survival ratio with SH-SY5Y cells (SH-SY5Y, 6 h pretreatment with L-744,832 (20 nM to 40 μM), 6-OHDA 50 μM, 17 h, MTT, control 38%) is listed as 53%. In addition, in the data set with SH-SY5Y cells (overnight treatment with 6-OHDA, FIG. 1), the “protective effect against cell death induced by ROS (in words)” value is on record as “significant protective effect”. The molecule further returned a protective effect in the data set with SH-SY5Y cells (overnight treatment with 6-OHDA, SH-SY5Y, MTT) of 24%. The “p70s6k phosphorylation in mammary tumors” value in the data set with mammary tumors (in vivo) is reported as “inhibits”. For the same molecule, in the data set with mammary tumors (transgenic mice), the tumor regression entry is listed as “induces tumor regression”. For the same molecule, the reported active concentration in data set [1] is 25 to 60 µM.

Consider `Cn1cncc1C(N)(c1ccc(Cl)cc1)c1ccc2c(c1)c(-c1cccc(Cl)c1)cc(=O)n2C` (stereo not drawn) [R115777, 6-[Amino(4-chlorophenyl)-1-methyl-1H-imidazol-5-ylmethyl]-4-(3-chlorophenyl)-1-methyl-2(1H)-quinolinone], for which, on FTase, the IC50 is 0.86 nM. Regarding `O=[N+]([O-])[C@H]1C(c2ccccc2Br)CCN(Cc2cccnc2)[C@@H]1c1ccc(O)c(O)c1` (single isomer, unassigned; (+)) [(+)-4-(2-Bromophenyl)-2-(3,4-dihydroxyphenyl)-3-nitro-1-(3-pyridylmethyl)piperidine], the IC50 at FTase is 1.9 nM. As to `CSCC[C@H](NC(=O)[C@@H](NC(=O)[C@@H](NC(=O)CCP(=O)(O)C/C=C(\C)CC/C=C(\C)CCC=C(C)C)C(C)C)C(C)C)C(=O)O` [BMS-186511], on FTase, the IC50 is 10 nM. For the molecule `C=C(CCC12OC(C(=O)O)C(O)(C(=O)O)C(C(=O)O)(O1)C(OC(=O)C=CC(C)CC(C)CC)C2O)C(OC(C)=O)C(C)Cc1ccccc1` [Zaragozic acid, L-erythro-L-Glycero-D-altro-7-trideculo-7,4-furanosonic acid, 2,7-anhydro-3,4-di-C-carboxy-8,9,10,12,13-pentadeoxy-10-methylene-12-(phenylmethyl)-,11-acetate 5-(4,6-dimethyl-2-octenoate), [5(2E,4S,6S),7S]], the IC50 at FTase was 50 nM.

`CSCC[C@H](NC(=O)CN1C[C@H](N(C)C(=O)[C@H](N)CS)N=C(c2ccccc2)c2ccccc21)C(=O)O` [BZA-2B]: the IC50 at FTase was 0.85 nM. Consider `CC(C)C[C@H](NC(=O)CN1C[C@H](N(C)C(=O)[C@H](N)CS)N=C(c2ccccc2)c2ccccc21)C(=O)O` [BZA-4B], for which the IC50 on FTase was 1.3 nM.

Source of the values: US20080153758A1, “Compounds Which Inhibits Protein Prenylation E.G. Geranylgeransferse or Farnesyltransferase Inhibitors for Treating Parkinson's Disease” (priority 2004, published 2008).
